Results as given in US20130289023A1, “METHOD FOR TREATING BRAIN TUMOR” (priority 2012, published 2013).
Like-named read-outs stand apart in the source and are kept apart here.

How the values were obtained:
[1] = tested on: GBM8401 cells; experiment: MTT cell viability assay in GBM8401; conditions: for cell death: GBM8401, 1 to 10 μM, 72 hr, FIG. 1(B)
Experimental: To examine the cytotoxicity of anti-psychotic drugs on malignant glioma, GBM8401 cells were treated with 21 anti-psychotic drugs at 10 μM, respectively, for 72 hr.

[2] = tested on: GBM cells; experiment: Autophagy and ER stress markers in GBM cells (western blot); format: cell-based; conditions: for autophagy in GBM cells: GBM8401 and U87MG cells, western blot markers
Experimental: (§1) The cells were lysed in a lysis buffer (50 mM Tris-HCl, pH 7.4, 5 mM MgCl2, 1% Nonidet P-40, 150 mMNaCl, 1 mM phenylmethylsulfonyl fluoride). Total protein was isolated and subjected to SDS polyacrylamide gel electrophoresis and electrotransfered onto PVDF membranes (Millipore). Primary antibodies, including p-mTOR (Ser 2448), mTOR, PI3K (P110α), p-Akt (Ser 473), Akt, p-S6K (Ser 424), S6K, p-AMPK (Thrl72), AMPK, and CASP3, were obtained from Cell Signaling and LC3 was from Abgent, and secondary antibodies for anti-mouse and anti-rabbit horseradish preoxidase (HRP)-conjugation were from Chemicon International. The protein detection was performed with enhanced chemiluminescence (ECL™) method captured by a Luminescence Imaging System (LAS-4000™, Fuji Photo Film Co., Ltd),
(§2) We observed several protein expression changes, primarily involved in autophagic and cell growth related pathway, it was shown that GBM cells are more sensitive to agents that induce autophagy than apoptosis. Thus, we examined the PI3K-Akt-mTORcascade with known roles m regulation of autophagy.

[3] = tested on: U87MG cells; experiment: Cell viability / cell death in U87MG; format: cell-based; conditions: 1 to 10 μM, 72 hr, FIG. 1(B)
[4] = tested on: U87MG sphere cells (cancer stem-like cells)
[5] = tested on: U87MG cells; experiment: Side population assay (flow cytometry) in U87MG; format: cell-based; conditions: 10 μM, decreased from 1.43%
Experimental: (§3) The cells were detached from the dishes with trypsin-EDTA (Invitrogen), and suspended in a single-cell suspension at 1×10^6 cells/mL in Hank's balanced salt solution (HBSS) supplemented with 3% fetal calf serum and 10 mM Hepes. The cells were then incubated at 37° C. for 90 min with 20 μg/mL Hoechst 33342 (Sigma Chemical, St. Louis, Mo.), either alone or in the presence of 50 μmol/L verapamil (Sigma), an inhibitor of the verapamil-sensitive ABC transporter. After incubation, the cells were centrifuged immediately for 5 min at 300 g and 4° C. and resuspended in ice-cold HBSS, The cells were kept on ice to inhibit efflux of the Hoechst dye, and 1 μg/mL propidium Iodide (BD) was added to discriminate dead cells. Finally, these cells were filtered through a 40 μm cell strainer (BD) to obtain a single-cell suspension. Dual-wavelength analysis and purification were performed on a dual-laser PACS. Vantage SE machine (BD). Hoechst 33342 was excited with a 355 nm UV light and emitted blue fluorescence with a 450/20 band-pass (BP) filter and red fluorescence with a 675 nm edge filter long-pass (EFLP). A 610 nm dichroic mirror short-pass (DMSP) was used to separate the emission wavelengths. Pi-positive (dead) cells were excluded from the analysis.

[6] = tested on: GBM8401 cells; experiment: Side population assay (flow cytometry) in GBM8401; format: cell-based; conditions: 10 μM, decreased from 1.26%
Experimental: as §3

[7] = tested on: primary GBM spheroids; experiment: Tumor spheroid assay; format: cell-based
Experimental: For the formation of tumor spheroids, cells were cultured in HEScGRO serum-free medium (human) (Chemicon) supplemented with 20 ng/mL Hegf, 10 ng/mL hFGF-b and NeuroCult MS-A proliferation supplements. Cells were seeded at low densities (1000 cells/mL) in 12-well low adhesion plates at 1 mL, per well Spheroids (tight, spherical, non-adherent masses >90 um in diameter) were counted, and at least 50 spheroids per group were measured with an ocular micrometer. For secondary spheroid-forming assays, primary spheroids were dissociated mechanically and processed as in the primary assay. For the quantification of the percentage of spheroid-forming cells, cells were seeded at one cell per well in 96-well plates, […]

[8] = tested on: GBM8401 cells; experiment: Western blot analysis in GBM8401; format: cell-based; conditions: 24 hr
Experimental: as §1, §2
(§4) Pathway analysis of differentially expressed gene signatures obtained from microarray profiling was investigated via Consensus PathDB. Several thioridazine-mediated pathways were highlighted, including pathway in cancer, GPCR signaling, senescence and autophagy, DMA damage response, and G1 to S cell cycle control (FIGS. 4(A) and 4(B)). Because G-protein couple receptors (GPCR) are membrane associated proteins and have been widely recognized as drug targets. Therefore, we tested whether GPCR might be the target of thioridazine.

[9] = tested on: U87MG cells; experiment: U87MG subcutaneous tumor in NOD/SCID mice; format: in vivo; conditions: 5 days/week
Experimental: Female NOD/SCID, 4-6 weeks of age were purchased from the National Laboratory Animal Center (NLAC) (Taipei, Taiwan). All protocols were approved by the institutional animal care committee of Taipei Medical University Hospital Mice were inoculated with U87MG cells in the right flank of NOD/SCID mice (1×10^6 cells/100 μL PBS, subcutaneous infection) and divided into control (sham) and thioridazine-treatment groups (5 mg/kg/day, 5 days/week). N=5 in each group. Tumor burden was measured on a weekly basis using a caliper and calculated using the following formula (a×b^2)/2, where a and b represents the long and short axis of the tumor respectively.
By the end of 6 weeks, animals were humanely sacrificed and tumor biopsies were collected.

[10] = tested on: U87MG cells; experiment: Western blot analysis in U87MG; format: cell-based; conditions: 24 hr
Experimental: as §1, §2, §4

[11] = U87MG sphere cells, 10 and 20 μM, 24 hr

fluphenazine
cell death [1]: dose-dependent increase in cell death
autophagy in GBM cells [2]: induce autophagye
cell death [3]: dose-dependent increase in cell death

prochlorperazine
cell viability ([4]; U87MG sphere cells, 10 and 15 μM, 24 hr): significantly reduced

thioridazine
IC50 [1]: < 10 µM
cell death [1]: dose-dependent increase in cell death
autophagy in GBM cells [2]: induce autophagye
ER stress: IRE1a and ER stress-associated proteins (Bip and CHOP) ([2]; GBM cells): accumulation
cancer stem-like cells population (side population) [5]: 0.1%
cancer stem-like cells population (side population) [6]: 0.03%
formation of primary GBM spheroids [7]: inhibited
EDNRA, GPR17, GPRC5B (GPCR) expression ([8]; GBM8401, 10 μM): down-regulated
LC3-II and phospho-AMPK (THr172) ([8]; GBM8401, 5 to 15 μM): up-regulated
PI3K, phospho-Akt(Ser 473), phospho-mTOR(Ser 2448), phospho-S6K (Ser 424) ([8]; GBM8401, 5 to 15 μM): down-regulated
cell death [3]: dose-dependent increase in cell death
cell viability ([4]; 10 µM): 22%
cell viability [4, 11]: significantly reduced
tumor samples (biopsies) compared to control mice ([9]; 5 mg/kg/day, end of 6 weeks): significantly smaller in size and less vascularized
tumor burden compared to vehicle control ([9]; i.p. injection 5 mg/kg/day, NOD-SCID mice with U87MG cells): significantly smaller
EDNRA, GPR17, GPRC5B (GPCR) expression ([10]; 10 μM): down-regulated
LC3-II and phospho-AMPK (THr172) ([10]; 5 to 15 μM): up-regulated
PI3K, phospho-Akt(Ser 473), phospho-mTOR(Ser 2448), phospho-S6K (Ser 424) ([10]; 5 to 15 μM): down-regulated

trifluoperazine
cell viability [4, 11]: significantly reduced
